Reference: patent US7345070B2, “Peroxisome proliferator activated receptor agonists” (Eli Lilly and Company, priority 2000, dated 2008)

The molecules below were run on db/db mice (assay: Evaluation of glucose levels in db/db mice). Conditions: Mus musculus, 168 h, 30 mg/kg oral gavage daily for 7 days, 100% = glucose not different from lean values, read-out: Glucose Normalisation.
Type: in vivo
Method: Five week old male diabetic (db/db) mice [C57BlKs/j-m+/+ Lepr(db), Jackson Laboratory, Bar Harbor, Me.] or lean littermates (db+) were housed 6 per cage (10″×20″×8″ with aspen chip bedding) with food (Purina 5015) and water available at all times. After an acclimation period of 2 weeks, animals were individually identified by ear notches, weighed, and bled via the tail vein for determination of initial glucose levels. Blood was collected (100 μl) from unfasted animals by wrapping each mouse in a towel, cutting the tip of the tail with a scalpel, and milking blood from the tail into a heparinized capillary tube (Fisher) balanced on the edge of the bench. Sample was discharged into a heparinized microtainer with gel separator (VWR) and retained on ice. Plasma was obtained after centrifugation at 4° C. and glucose measured immediately. Remaining plasma was frozen until the completion of the experiment, when glucose and triglycerides were assayed in all samples. Animals were grouped based on initial glucose levels and body weights. Beginning the following morning, mice were dosed daily by oral gavage for 7 days using a 20 gauge, 1½″ curved disposable feeding needle. Treatments were test compounds (30 mg/kg), a positive control agent (30 mg/kg) or vehicle [1% carboxymethylcellulose (w/v)/0.25% Tween80 (w/v); 0.3 ml/mouse]. On day 7, mice were weighed and bled (tail vein) 3 hours after dosing. Twenty-four hours after the 7th dose (i.e., day 8), animals were bled again (tail vein). Samples obtained from conscious animals on days 0, 7 and 8 were assayed for glucose. After the 24 hour bleed, animals were weighed and dosed for the final time. Three hours after dosing on day 8, animals were anesthetized by inhalation of isoflurane and blood obtained via cardiac puncture (0.5-0.7 ml). Whole blood was transferred to serum separator tubes, chilled on ice and permitted to clot. Serum was obtained after centrifugation at 4° C. and frozen until analysis for compound levels. After sacrifice by cervical dislocation, the liver, heart and epididymal fat pads were excised and weighed.
The animals dosed with vehicle had average triglycerides values of 170-230 mg/dl, which were reduced by the positive PPARγ control (70-120 mg/dl with a mean reduction of 50%). Male db/db mice were hyperglycemic (average glucose of 680-730 mg/dl on the 7th day of treatment), while lean animals had average glucose levels between 190-230 mg/dl.
Glucose was measured […] using commercially purchased reagents (Sigma #315-500). According to the manufacturers, the procedures were modified from published work (McGowan, M. W., Artiss, J. D., Strandbergh, D. R. & Zak, B. Clin Chem, 20:470-5 (1974) and Keston, A. Specific colorimetric enzymatic analytical reagents for glucose. Abstract of papers 129th Meeting ACS, 31C (1956).); and depend on the release of a mole of hydrogen peroxide for each mole of analyte, coupled with a color reaction first described by Trinder (Trinder, P. Determination of glucose in blood using glucose oxidase with an alternative oxygen acceptor. Ann Clin Biochem, 6:24 (1969)). The absorbance of the dye produced is linearly related to the analyte in the sample. The assays were further modified in our laboratory for use in a 96 well format. Standards (Sigma #339-11, Sigma #16-11, and Sigma #CC0534 for glucose, triglycerides and total cholesterol, respectively), quality control plasma (Sigma # A2034), and samples (2 or 5 μl/well) were measured in duplicate using 200 μl of reagent. An additional aliquot of sample, pipetted to a third well and diluted in 200 μl water, provided a blank for each specimen. Plates were incubated at room temperature (18, 15, and 10 minutes for glucose, triglycerides and total cholesterol, respectively) on a plate shaker (DPC Micormix 5) and absorbance read at 500 nm (glucose and total cholesterol) or 540 nm (triglycerides) on a plate reader (Wallac Victor 1420). […]

Point of comparison: Cc1oc(C2CCCCC2)nc1CCOc1ccc(CC(C)(Oc2ccc3c(c2)OCO3)C(=O)O)cc1 (centres unmarked) [Example 80, 2-(Benzo[1,3]dioxol-5-yloxy)-3-{4-[2-(2-cyclohexyl-5-methyl-oxazol-4-yl)-ethoxy]-phenyl}-2-methyl-propionic acid], inhibition in vivo at 30 mg/kg 83%. Against it:
- COc1cccc(OC(C)(Cc2ccc(OCCc3nc(C4CCCCC4)oc3C)cc2)C(=O)O)c1 (centres unmarked) [Example 76, 3-{4-[2-(2-Cyclohexyl-5-methyl-oxazol-4-yl)-ethoxy]-phenyl}-2-(3-methoxy-phenoxy)-2-methyl-propionic acid] — higher, 97%
- Cc1oc(-c2ccccc2)nc1CCOc1ccc(CC(C)(Oc2ccc3c(c2)OCO3)C(=O)O)cc1 (centres unmarked) [Example 78, 2-(Benzo[1,3]dioxol-5-yloxy)-2-methyl-3-{4-[2-(5-methyl-2-phenyl-oxazol-4-yl)-ethoxy]-phenyl}-propionic acid] — higher, 86%
- Cc1oc(CCc2ccccc2)nc1CCOc1ccc(C[C@](C)(Oc2ccccc2)C(=O)O)cc1 [Example 86, (S)-2-Methyl-3-{4-[2-(5-methyl-2-phenethyl-oxazol-4-yl)-ethoxy]-phenyl}-2-phenoxy-propionic acid] — higher, 92%
- Cc1oc(-c2ccccc2)nc1CCCc1ccc(CC(C)(Oc2ccccc2)C(=O)O)s1 (centres unmarked) [Example 91, 2-Methyl-3-{5-[3-(5-methyl-2-phenyl-oxazol-4-yl)-propyl]-thiophen-2-yl}-2-phenoxy-propionic acid] — lower, 71%
